According to the NIST ThermoML archive (doi:10.1016/j.fluid.2007.09.002):
± gives the expanded uncertainty stated by the source.

Key:
[1] = Liquid, Closed cell (Static) method
[2] = excess molar enthalpy (molar enthalpy of mixing); xn = mol fraction of the nth substance listed; conditions: 298.15 K, 101.3 kPa, Liquid, Flow calorimetry

SMILES	vapor or sublimation pressure ([1]; 263.15 K) [kPa]	vapor or sublimation pressure ([1]; 273.15 K) [kPa]	vapor or sublimation pressure ([1]; 283.15 K) [kPa]	vapor or sublimation pressure ([1]; 293.15 K) [kPa]	vapor or sublimation pressure ([1]; 298.15 K) [kPa]	vapor or sublimation pressure ([1]; 303.15 K) [kPa]	vapor or sublimation pressure ([1]; 313.15 K) [kPa]	vapor or sublimation pressure ([1]; 323.15 K) [kPa]	vapor or sublimation pressure ([1]; 333.15 K) [kPa]	vapor or sublimation pressure ([1]; 343.15 K) [kPa]	other results
CC#CCCC [2-hexyne]	1.372 ± 0.056	2.56 ± 0.1	4.532 ± 0.18	7.66 ± 0.31	9.804 ± 0.39	12.43 ± 0.5	19.45 ± 0.78	29.46 ± 1.2	43.35 ± 1.7	62.15 ± 2.5	–
CC#CCCC [2-hexyne] + CCCCOC	–	–	–	–	–	–	–	–	–	–	excess molar enthalpy ([2]; x1 = 0.1468): -0.06 ± 0.01 kJ/mol; excess molar enthalpy ([2]; x1 = 0.3058): -0.12 ± 0.01 kJ/mol; excess molar enthalpy ([2]; x1 = 0.4949): -0.163 ± 0.01 kJ/mol; excess molar enthalpy ([2]; x1 = 0.637): -0.16 ± 0.01 kJ/mol; excess molar enthalpy ([2]; x1 = 0.7489): -0.14 ± 0.01 kJ/mol; excess molar enthalpy ([2]; x1 = 0.8444): -0.08 ± 0.01 kJ/mol
CCC#CCC [3-hexyne]	1.613 ± 0.065	3.001 ± 0.12	5.293 ± 0.21	8.909 ± 0.36	11.38 ± 0.46	14.39 ± 0.58	22.4 ± 0.9	33.77 ± 1.4	49.44 ± 2	70.52 ± 2.8	–
CCC#CCC [3-hexyne] + CCCCOCCCC	–	–	–	–	–	–	–	–	–	–	excess molar enthalpy ([2]; x1 = 0.1599): 0.04 ± 0.01 kJ/mol; excess molar enthalpy ([2]; x1 = 0.2756): 0.06 ± 0.01 kJ/mol; excess molar enthalpy ([2]; x1 = 0.3989): 0.073 ± 0.01 kJ/mol; excess molar enthalpy ([2]; x1 = 0.496): 0.077 ± 0.01 kJ/mol; excess molar enthalpy ([2]; x1 = 0.5781): 0.076 ± 0.01 kJ/mol; excess molar enthalpy ([2]; x1 = 0.6579): 0.068 ± 0.01 kJ/mol; excess molar enthalpy ([2]; x1 = 0.7475): 0.057 ± 0.01 kJ/mol; excess molar enthalpy ([2]; x1 = 0.8783): 0.035 ± 0.01 kJ/mol
CCCCOC [butyl methyl ether]	3.054 ± 0.062	5.436 ± 0.11	9.207 ± 0.19	14.93 ± 0.3	18.73 ± 0.38	23.3 ± 0.47	35.15 ± 0.71	51.45 ± 1	73.31 ± 1.5	101.96 ± 2	–
